Results from ChEMBL document CHEMBL5291721, “A preclinical secondary pharmacology resource illuminates target-adverse drug reaction associations of marketed drugs” (Nat Commun, 2023).

Key:
[1] = biological target: T1, Alpha-1A adrenergic receptor (Homo sapiens, UniProt P35348)
T1 sequence (P35348 whole entry): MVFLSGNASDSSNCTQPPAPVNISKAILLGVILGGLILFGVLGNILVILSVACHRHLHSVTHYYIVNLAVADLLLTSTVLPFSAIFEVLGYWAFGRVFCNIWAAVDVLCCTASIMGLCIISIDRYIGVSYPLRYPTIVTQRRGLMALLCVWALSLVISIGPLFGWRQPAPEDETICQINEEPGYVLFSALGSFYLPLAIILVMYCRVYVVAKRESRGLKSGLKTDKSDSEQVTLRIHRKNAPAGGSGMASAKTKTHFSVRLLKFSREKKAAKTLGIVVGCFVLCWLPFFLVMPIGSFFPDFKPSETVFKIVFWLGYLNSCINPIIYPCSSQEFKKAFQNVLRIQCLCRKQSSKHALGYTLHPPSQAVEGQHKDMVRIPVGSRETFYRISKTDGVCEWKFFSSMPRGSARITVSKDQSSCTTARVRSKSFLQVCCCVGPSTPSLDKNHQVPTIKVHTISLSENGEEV

[2] = biological target: T2, B1 bradykinin receptor (Homo sapiens, UniProt P46663)
T2 sequence (P46663 whole entry): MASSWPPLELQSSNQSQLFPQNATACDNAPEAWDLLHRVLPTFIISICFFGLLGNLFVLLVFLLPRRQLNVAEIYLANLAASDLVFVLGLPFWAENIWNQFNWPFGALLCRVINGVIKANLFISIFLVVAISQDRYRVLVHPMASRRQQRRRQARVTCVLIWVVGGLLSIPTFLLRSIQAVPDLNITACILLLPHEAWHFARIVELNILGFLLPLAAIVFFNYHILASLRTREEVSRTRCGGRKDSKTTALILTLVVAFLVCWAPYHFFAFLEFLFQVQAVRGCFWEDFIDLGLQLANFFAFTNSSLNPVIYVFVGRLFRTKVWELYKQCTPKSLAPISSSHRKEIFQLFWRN

[3] = biological target: T3, Corticotropin-releasing factor receptor 1 (Homo sapiens, UniProt P34998)
T3 sequence (P34998 whole entry): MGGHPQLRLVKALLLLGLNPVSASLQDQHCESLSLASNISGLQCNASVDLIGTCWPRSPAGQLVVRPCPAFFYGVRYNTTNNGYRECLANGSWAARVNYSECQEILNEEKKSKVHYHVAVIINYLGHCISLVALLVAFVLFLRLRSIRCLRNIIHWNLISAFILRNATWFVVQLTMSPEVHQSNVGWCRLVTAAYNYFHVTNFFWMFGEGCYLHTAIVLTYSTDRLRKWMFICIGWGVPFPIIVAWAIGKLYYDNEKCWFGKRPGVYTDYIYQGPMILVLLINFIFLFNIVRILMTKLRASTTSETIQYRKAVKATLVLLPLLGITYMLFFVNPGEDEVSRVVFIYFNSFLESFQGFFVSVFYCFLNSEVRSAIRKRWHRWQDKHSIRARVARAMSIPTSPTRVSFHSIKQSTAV

[4] = biological target: T4, Gastric inhibitory polypeptide receptor (Homo sapiens, UniProt P48546)
T4 sequence (P48546 whole entry): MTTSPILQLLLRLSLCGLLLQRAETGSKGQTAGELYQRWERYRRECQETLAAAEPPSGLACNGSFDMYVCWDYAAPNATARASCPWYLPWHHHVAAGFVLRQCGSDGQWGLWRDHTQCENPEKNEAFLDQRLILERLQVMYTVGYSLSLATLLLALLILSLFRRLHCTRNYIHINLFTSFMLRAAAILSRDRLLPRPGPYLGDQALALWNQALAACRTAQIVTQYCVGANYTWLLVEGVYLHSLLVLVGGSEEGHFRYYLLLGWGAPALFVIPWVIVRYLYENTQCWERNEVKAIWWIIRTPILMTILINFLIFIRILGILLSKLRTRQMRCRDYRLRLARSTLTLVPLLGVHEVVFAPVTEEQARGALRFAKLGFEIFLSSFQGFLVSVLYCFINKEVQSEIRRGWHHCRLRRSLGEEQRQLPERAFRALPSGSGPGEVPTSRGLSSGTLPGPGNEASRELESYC

[5] = biological target: 5-hydroxytryptamine receptor 2A (Homo sapiens, UniProt P28223); type: functional, cell-based
[6] = biological target: Melanocortin receptor 4 (Homo sapiens, UniProt P32245)
[7] = biological target: T5, Progesterone receptor (Homo sapiens, UniProt P06401)
T5 sequence (P06401 whole entry): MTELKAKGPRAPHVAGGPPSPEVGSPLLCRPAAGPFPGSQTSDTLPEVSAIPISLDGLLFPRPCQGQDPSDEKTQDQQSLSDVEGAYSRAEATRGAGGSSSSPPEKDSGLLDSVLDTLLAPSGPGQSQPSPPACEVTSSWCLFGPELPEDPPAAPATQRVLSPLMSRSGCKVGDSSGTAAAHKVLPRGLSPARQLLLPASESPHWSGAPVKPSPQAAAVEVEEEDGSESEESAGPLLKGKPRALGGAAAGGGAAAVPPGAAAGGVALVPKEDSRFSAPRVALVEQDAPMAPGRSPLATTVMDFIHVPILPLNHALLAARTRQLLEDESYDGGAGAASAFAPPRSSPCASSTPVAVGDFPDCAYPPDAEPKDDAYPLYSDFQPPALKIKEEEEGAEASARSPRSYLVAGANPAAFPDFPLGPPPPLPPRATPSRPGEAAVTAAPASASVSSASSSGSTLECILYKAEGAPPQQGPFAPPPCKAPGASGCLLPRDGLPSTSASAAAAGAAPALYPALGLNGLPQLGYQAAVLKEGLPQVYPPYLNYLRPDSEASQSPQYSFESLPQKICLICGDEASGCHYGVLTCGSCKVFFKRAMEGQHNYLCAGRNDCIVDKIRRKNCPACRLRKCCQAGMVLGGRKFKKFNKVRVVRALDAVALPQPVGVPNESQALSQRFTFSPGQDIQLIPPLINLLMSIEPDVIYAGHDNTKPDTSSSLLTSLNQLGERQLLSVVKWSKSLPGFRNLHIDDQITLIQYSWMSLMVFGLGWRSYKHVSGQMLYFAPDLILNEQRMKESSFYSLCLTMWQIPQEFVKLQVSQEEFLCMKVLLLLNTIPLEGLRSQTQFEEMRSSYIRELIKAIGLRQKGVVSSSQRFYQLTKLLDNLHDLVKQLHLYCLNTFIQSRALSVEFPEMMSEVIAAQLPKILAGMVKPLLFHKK

[8] = biological target: Mu-type opioid receptor (Homo sapiens, UniProt P35372); assay: biochemical; type: functional
Note: assay procedure not described here.

Melanocortin receptor 4, sequence (P32245 whole entry): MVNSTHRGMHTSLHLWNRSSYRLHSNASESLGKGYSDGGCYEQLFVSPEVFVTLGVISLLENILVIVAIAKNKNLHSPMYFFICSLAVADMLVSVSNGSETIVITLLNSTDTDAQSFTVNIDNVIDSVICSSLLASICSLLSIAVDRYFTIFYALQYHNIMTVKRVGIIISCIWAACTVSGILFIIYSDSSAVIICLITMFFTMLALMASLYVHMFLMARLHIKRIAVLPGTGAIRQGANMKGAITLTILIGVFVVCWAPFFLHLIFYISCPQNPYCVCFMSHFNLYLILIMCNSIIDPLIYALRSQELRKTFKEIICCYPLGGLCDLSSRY
5-hydroxytryptamine receptor 2A, sequence (P28223 whole entry): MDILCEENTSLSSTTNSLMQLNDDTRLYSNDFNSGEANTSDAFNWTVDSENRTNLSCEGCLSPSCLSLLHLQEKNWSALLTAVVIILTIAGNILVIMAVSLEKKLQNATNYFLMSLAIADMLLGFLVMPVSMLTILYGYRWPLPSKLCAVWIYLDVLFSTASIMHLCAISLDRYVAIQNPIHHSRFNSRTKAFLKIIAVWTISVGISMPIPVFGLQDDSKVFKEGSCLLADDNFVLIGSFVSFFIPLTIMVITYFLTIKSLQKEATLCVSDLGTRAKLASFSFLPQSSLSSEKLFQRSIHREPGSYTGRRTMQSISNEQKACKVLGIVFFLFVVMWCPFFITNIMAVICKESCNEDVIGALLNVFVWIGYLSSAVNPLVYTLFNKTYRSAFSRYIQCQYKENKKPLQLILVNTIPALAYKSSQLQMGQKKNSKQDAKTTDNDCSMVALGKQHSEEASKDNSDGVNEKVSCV
Mu-type opioid receptor, sequence (P35372 whole entry): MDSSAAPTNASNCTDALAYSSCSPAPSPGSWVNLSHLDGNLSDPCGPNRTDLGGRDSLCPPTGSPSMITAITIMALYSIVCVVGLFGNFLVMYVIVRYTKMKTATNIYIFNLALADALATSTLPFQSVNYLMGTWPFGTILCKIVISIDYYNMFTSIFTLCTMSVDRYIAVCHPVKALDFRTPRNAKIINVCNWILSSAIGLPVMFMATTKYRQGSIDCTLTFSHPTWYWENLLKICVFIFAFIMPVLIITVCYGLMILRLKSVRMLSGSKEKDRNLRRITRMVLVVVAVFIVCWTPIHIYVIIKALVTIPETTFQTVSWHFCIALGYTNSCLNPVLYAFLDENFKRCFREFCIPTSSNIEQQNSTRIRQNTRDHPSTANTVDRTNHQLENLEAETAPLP

COc1ccc(C(=O)Nc2ccccc2CCC2CCCCN2C)cc1 (configuration not stated) [ENCAINIDE]
AC50 [1]: > 10 µM | AC50 [2]: > 30 µM | AC50 [3]: > 30 µM | AC50 [4]: > 30 µM | AC50 [5]: 2.2 µM | AC50 [6]: > 30 µM | AC50 [7]: > 30 µM

CCOc1ccc(Cc2cc([C@@H]3O[C@H](CO)[C@@H](O)[C@H](O)[C@H]3O)ccc2Cl)cc1 [DAPAGLIFLOZIN]
AC50 [1]: > 10 µM | AC50 [6]: > 30 µM | AC50 [7]: > 30 µM

COc1ccccc1N1CCN(CC(O)COc2cccc3ccccc23)CC1 (configuration not stated) [NAFTOPIDIL]
AC50 [1]: 0.543 µM | AC50 [5]: 9.2 µM | AC50 [8]: 26 µM

Cc1oc(=O)oc1CN1CCN(c2cc3c(cc2F)c(=O)c(C(=O)O)c2n3C(C)S2)CC1 (configuration not stated) [PRULIFLOXACIN]
AC50 [5]: > 30 µM | AC50 [8]: > 30 µM

CCCC1O[C@@H]2C[C@H]3[C@@H]4CCC5=CC(=O)C=C[C@]5(C)[C@H]4[C@@H](O)C[C@]3(C)[C@]2(C(=O)CO)O1 (some centres not stated) [BUDESONIDE]
AC50 [1]: > 10 µM | AC50 [6]: > 10 µM

CN1CCN(C2=Nc3ccccc3Sc3ccc(Cl)cc32)CC1 [CLOTHIAPINE]
AC50 [5]: 1 µM | AC50 [8]: 11 µM

CN(C)CCc1c[nH]c2ccc(C[C@H]3COC(=O)N3)cc12 [ZOLMITRIPTAN]
AC50 [8]: > 30 µM

O=[N+]([O-])O[C@@H]1CO[C@H]2[C@@H]1OC[C@@H]2O [ISOSORBIDE MONONITRATE]
AC50 [1]: > 10 µM | AC50 [2]: > 30 µM | AC50 [3]: > 30 µM | AC50 [4]: > 30 µM | AC50 [6]: > 30 µM | AC50 [7]: > 30 µM

CC[C@H]1CN2CCc3cc(OC)c(OC)cc3[C@@H]2C[C@@H]1C[C@H]1NCCc2cc(OC)c(OC)cc21 [EMETINE]
AC50 [1]: 6 µM | AC50 [8]: > 30 µM

C=CCN1C[C@H](C(=O)N(CCCN(C)C)C(=O)NCC)C[C@@H]2c3cccc4[nH]cc(c34)C[C@H]21 [CABERGOLINE]
AC50 [1]: 3.62 µM | AC50 [6]: > 10 µM

CN(C)CCC=C1c2ccccc2C=Cc2ccccc21 [CYCLOBENZAPRINE]
AC50 [1]: 0.261 µM | AC50 [2]: > 30 µM | AC50 [3]: > 30 µM | AC50 [4]: > 30 µM | AC50 [6]: > 30 µM | AC50 [7]: > 30 µM

CN(C)CC/C=C1\c2ccccc2CSc2ccccc21 [DOTHIEPIN]
AC50 [1]: 3.2 µM | AC50 [5]: 4.8 µM | AC50 [8]: > 30 µM

CC[C@@H](C(N)=O)N1CCCC1=O
AC50 [5]: > 30 µM | AC50 [8]: > 30 µM

Cc1cc(C)c(NC(=O)CN(CC(=O)O)CC(=O)O)c(C)c1Br [MEBROFENIN]
AC50 [5]: > 30 µM | AC50 [8]: > 30 µM

COC1=C(OC)C(=O)C(C/C=C(\C)CC/C=C(\C)CC/C=C(\C)CC/C=C(\C)CC/C=C(\C)CC/C=C(\C)CC/C=C(\C)CC/C=C(\C)CC/C=C(\C)CCC=C(C)C)=C(C)C1=O [UBIDECARENONE]
AC50 [5]: > 30 µM | AC50 [8]: > 30 µM

CCCCCNC(=N)N/N=C/c1c[nH]c2ccc(OC)cc12 [TEGASEROD]
AC50 [1]: 2.05 µM | AC50 [2]: > 30 µM | AC50 [3]: > 30 µM | AC50 [4]: > 30 µM | AC50 [5]: 1.5 µM | AC50 [6]: 5.34 µM | AC50 [8]: > 30 µM | AC50 [7]: > 30 µM

CCOc1ccccc1OCC1CNCCO1 (configuration not stated) [VILOXAZINE]
AC50 [1]: 11.2 µM | AC50 [2]: > 30 µM | AC50 [3]: > 30 µM | AC50 [4]: > 30 µM | AC50 [6]: > 30 µM | AC50 [7]: > 30 µM

O=[N+]([O-])c1cn2c(n1)OC[C@@H](OCc1ccc(OC(F)(F)F)cc1)C2 [PRETOMANID]
AC50 [2]: > 30 µM | AC50 [6]: > 30 µM

COc1cc2nc(N3CCN(C(=O)c4ccco4)CC3)nc(N)c2cc1OC [PRAZOSIN]
AC50 [2]: > 30 µM | AC50 [3]: > 30 µM | AC50 [4]: > 30 µM | AC50 [6]: > 30 µM | AC50 [8]: > 30 µM | AC50 [7]: > 30 µM
